This is an account of results in publication PMC9865040, “Design of A3B-Porphyrin Conjugates with Terpyridine as Potential Theranostic Agents: Synthesis, Complexation with Fe(III), Gd(III), and Photodynamic Activity” (Pharmaceutics, 2023).

For data set [1] the following is noted: standard; cited from earlier work.
Details of data set [2]: method as in PMID 17020252, PMID 24063545, doi:10.1002/(SICI)1099-1409(199803/04)2:2<145::AID-JPP60>3.0.CO. The conditions noted are these: in DMF, standard; cited from earlier work.
Data set [3] concerns NKE (human normal kidney epithelial) cell line. The data set is described as follows: Cell viability study (MTT-test) with and without irradiation. Type of data set: cell-based. The protocol: (§1) Biological activity. Cell viability study (MTT-test) on Hep2 (human laryngeal cancer) and NKE (normal kidney epithelial) cell lines. For this study, cells were plated into 96-well plates (BD Micro-FinePlus, Franklin Lakes, USA) (6 × 10^3 cells in 180 μL of culture medium) and incubated for 24 h at 37 °C in 5% CO2. The medium was standard DMEM (PanEco, Moscow, Russia) with penicillin-streptomycin (50 units/mL) (PanEco, Moscow, Russia) supplemented with 10% fetal bovine serum (PanEco, Russia). After this time, culture medium was replaced with a similar volume of Hanks’ solution (PanEco, Russia) with glucose added at a final concentration of 4.5 mg/mL. On the day of the experiment, serial dilutions of the compound in deionised water were made and 20 μL was added to the cell culture. The cell culture thus obtained was irradiated for 90 min using a Medical Therapy Philips TL 20W/52 lamp (wavelength 400–500 nm), power 2.3 mW. In parallel, the cell culture was incubated with the compound in the dark. After 90 min, in both cases, Hanks’ solution with the compound was replaced with DMEM medium without serum. The cell culture was then left for 24 h at 37 °C in 5% CO2 in the dark, after which 10 μL of MTT reagent solution (5 mg/mL, PanEco, Russia) was added and incubated for another 3.5 h. The formed formazan in cells was dissolved in 100 μL DMSO. The optical density of the solution was measured on a MultiScan MCC 340 spectrophotometer (Labsystems, Kennett Square, PA, USA) at 540 nm. Each series of experiments was repeated 3 times. […] Statistical processing of the obtained data was performed using Excel program package (Microsoft).
(§2) Cell viability study (MTT-test). The cytotoxicity of compounds 12 and 14 was studied on a Hep2 cell line (human laryngeal cancer) and NKE (human normal kidney epithelial), with and without irradiation. Two approaches were used when treating the cells. In the first case, compounds 12 and 14 were introduced into the cell culture only for the irradiation time (90 min). After that, the cell medium containing one of the compounds was removed. The cells were incubated in a fresh DMEM medium without compounds for a further 24 h, after which time the results were evaluated. The IC50 values were close for both cell lines (Table 4, Figure 5 and Figure S58). […] The results for the NKE cell line are presented in Table 4 and Figure S58 (Supporting Information).
(§3) In the second series of experiments, cell viability was evaluated 24 h after irradiation without removing the compound from the culture medium.
(In general: Tetrazolium assays rely on reduction of a dye to a coloured formazan, in cell work by metabolically active cells.)

For data set [4], the system named is Hep2 cell line (human laryngeal cancer). The data set is described as above. The format is cell-based. Here is the method:
as §1, §2, §3

Data set [5] is described as follows: Singlet oxygen quantum yield, DPBF oxidation in DMF, ZnTPP as standard. The format is physicochemical. The conditions noted are these: air-saturated, λ ≥ 500 nm. The text has this: Photochemical experiments for singlet oxygen quantum yield determination. Porphyrin-containing samples were irradiated in quartz cells at room temperature in air-saturated DMF solutions. Light source consisted of halogen lamp (150 W), thermal and UV filters, a three-lens spherical condenser with a reflector, and a cut-off filter (λ ≥ 500 nm). The light flux power was 10 mW/cm^2. The efficiency of photosensitised ^1O2 generation in porphyrin solutions was estimated from the dynamics of the absorbance decrease at 415 nm, corresponding to the absorption maximum of the selective ^1O2 acceptor-1,3-diphenylisobenzofuran (DPBF). DPBF was added to the solution of the tested compound in the dark immediately before the start of the photochemical experiment (CDPBF = 0.1 mM). […] The singlet oxygen quantum yield (ΦΔ) were calculated according to the known procedure with ZnTPP being a standard (ΦΔ = 0.74 in DMF).

Data set [6] is described as follows: Aggregation behaviour, UV-vis absorption and fluorescence spectra in DMF and aqueous solubiliser solutions. The format is physicochemical. The protocol: Aggregation behavior, photophysical characterization and solubilisation studies. Photophysical properties of zinc complexes of amphiphilic meso-arylporphyrins and their conjugates with terpyridine were studied in DMF and aqueous solutions of different solubilisers. Stock solutions of 1 mM of the studied compounds in DMF were added upon stirring to a micellar aqueous solution of a solubiliser (3 mL). The final concentration of the porphyrins was 3.5 µM. UV-vis absorption spectra were recorded using HACH DR-4000V spectrophotometer (Hach-Lange, Loveland, CO, USA) within the wavelength range of 320–800 nm with a step of 1 nm in quartz cells (10 mm) at room temperature. Steady-state fluorescence spectra were recorded using Perkin Elmer LS-50 (USA) luminescent spectrometer under similar conditions with the Soret band maximum excitation. Fluorescence quantum yields (ΦF) for Zn(II) complexes in DMF were measured according to the procedure using ZnTPP as a standard (ΦF = 0.033).

Test in data set [7]: as above
The format is physicochemical. The conditions noted are these: DMSO.

Data set [8] has as its system NKE cells (human kidney epithelium). As to the kind of experiment: Comet assay (DNA damage test). Type of data set: cell-based. The conditions noted are these: 1 μg/mL, 24 h, positive control. The protocol:
Comet assay. NKE cells (human kidney epithelium) were seeded into 24-well plates at 8 × 10^4 per well and incubated in DMEM medium (PanEco, Russia) with penicillin-streptomycin (50 units/mL) (PanEco, Russia) and 10% fetal bovine serum (PanEco, Russia) at 37 °C in 5% CO2. After 24 h, the medium was changed to a similar one but without serum to avoid interaction of the studied substance with it. […] Cells serving as positive controls were treated with ifosfamide (Baxter Oncology, Germany) at a final concentration of 1 μg/mL. Cell culture with the substances was left for 24 h at 37 °C in 5% CO2. Once this time was reached, the cells were removed from the substrate and washed twice with phosphate-salt buffer (PBS). Direct Comet assay was performed using OxiSelect™ Comet Assay Kit (Cell Biolabs, USA) according to the manufacturer’s protocol. Samples were stained with fluorescent dye Sybr Gold, Invitrogene, USA, and examined with a Zeiss microscope using a filter for FITC-fluorescence. All necessary measurements were performed using the computer program CometScore2.0. Statistics were calculated using Student’s t-test using the Microsoft Excel software package.
During the study, the NKE cells were seeded in 24-well plates. […] After this time, the assay itself was performed using OxiSelect™ Comet Assay Kit (Cell Biolabs, San Diego, CA, USA). […]

In the case of `C1=Cc2nc1c(-c1ccccc1)c1ccc([n-]1)c(-c1ccccc1)c1nc(c(-c3ccccc3)c3ccc([n-]3)c2-c2ccccc2)C=C1.[Zn+2]` [ZnTPP], the “fluorescence quantum yield ΦF” value in data set [1] is reported as 0.033. Further, the “singlet oxygen quantum yield ΦΔ” value in data set [2] was 0.74.

As usually defined, the IC50 is the concentration needed to halve the response being measured. Turning to `CCCCCCOc1ccc(-c2c3nc(c(-c4ccc(OCCCCCC)cc4)c4ccc([n-]4)c(-c4ccc(OCc5ccc(-c6cc(-c7ccccn7)nc(-c7ccccn7)c6)cc5)cc4)c4nc(c(-c5ccc(OCCCCCC)cc5)c5ccc2[n-]5)C=C4)C=C3)cc1.[Zn+2]` [compound 12], the IC50 in data set [3] (dark conditions, 24 h) is 2.44 ± 0.281 µM; in data set [3] (light irradiation 8.073 J/cm^2, 24 h), 2.57 ± 0.32 µM; in data set [3] (light irradiation 8.073 J/cm^2, […]), 1.7 ± 0.297 µM; in data set [4] (dark conditions, 24 h), 2.55 ± 0.28 µM; in data set [4] (light irradiation 8.073 J/cm^2, 24 h, compound not removed), 2.47 ± 0.233 µM; in data set [4] (light irradiation 90 min, 8.073 J/cm^2, compound present […] then removed, read after 24 h), 1.87 ± 0.333 µM. The “toxic effect without irradiation” value in data set [4] (dark, […] incubation, studied concentration range) was “no toxic effect”. Also, the “singlet oxygen quantum yield” value in data set [5] is reported as “about 65%”. Moreover, the solubilisation result in data set [6] (0.5 mM Tween-80, 1% Cremophor EL and 1% Pluronic F-127) is “partial solubilisation”. Besides, the lgε in data set [6] (Brij-58 (0.5 mM)) is given as 5.15; in data set [6] (Cremophor (1% Cremophor EL)), 5.35; in data set [6] (DMSO), 5.70; in data set [6] (Pluronic (1% Pluronic F-127)) it was 5.36; in data set [6] (TX-100 (1 mM)) it was 5.34; in data set [6] (Tween-80 (0.5 mM)) it was 5.40. The “ΔλB (half-width of the Soret band)” value in data set [6] (Brij-58 (0.5 mM)) worked out at 28 nm; in data set [6] (Cremophor (1% Cremophor EL)) it was 27 nm; in data set [6] (H2O), 36 nm; in data set [6] (Pluronic (1% Pluronic F-127)), 22 nm; in data set [6] (TX-100 (1 mM)), 25 nm; in data set [6] (Tween-80 (0.5 mM)), 19 nm. The “ΔλB (half-width of the Soret band)” value in data set [7] is reported as 10 nm. In addition, the “λem, second band” value is reported as 660 nm in data set [6] (Brij-58 (0.5 mM)), 655 nm in data set [6] (Cremophor (1% Cremophor EL)), 660 nm in data set [6] (H2O) and 658 nm in data set [6] (Pluronic (1% Pluronic F-127)). Further, the λmax in data set [6] (Cremophor (1% Cremophor EL)) turned out to be 430. Further, the “molar absorption coefficient, times lower than for ZnTPP” value in data set [6] (DMF) is given as 1.5 times. Besides, the “λQ (first Q band)” value in data set [6] (DMF) stood at 560 nm.

In the case of `O=P1(NCCCl)OCCCN1CCCl` (centres unmarked) [ifosfamide], the “proportion of 'comet' cells” value in data set [8] is on record as 36.1 ± 2.14%.
